Measurements: patent publication US20240116999A1, “CONFORMATIONALLY CONSTRAINED GLUCAGON ANALOGUES AND THEIR USE IN GLUCAGON-SINGLE CHAIN INSULIN FUSION PROTEINS” (THE TRUSTEES OF INDIANA UNIVERSITY, priority 2021, published 2024)
Bridge positions count the residues as written; N and C are the ends. Square brackets hold non-standard residues; d marks the D form. Ends that are not written are not given here. Peptide text beside a SMILES is read from it. Orn = NCCC[C@H](N)C(=O)O

Columns and labels:
[1] = Thioflavin T (ThT) fibrillation assay; format: physicochemical; conditions: for fibril formation: FIG. 5, relative to native glucagon; for formation of amyloid-like fibrils: FIG. 15, month-long assay, 100 μM, pH 7.4, 37° C.
Protocol: Fibrillation Assays. We employed an automated plate-based fluorescent device to monitor the time course of peptide fibrillation using a Thioflavin T (ThT) assay. This assay is based on the THT fluorescence emission at 480 nm upon binding to mature fibrils when excited at 440 nm. The assay was performed by preparing stock solutions of the fusion protein and the individual peptides in either NaCl 0.9% (pH 2.5) or PBS (pH 7.4). Our experience has identified 100-μM final concentration as optimal fibrillation conditions for glucagon analogues. Stock solutions were diluted with NaCl 0.9% or 1X PBS buffer, pH adjusted (with 1N HCl or 1N NaOH) mixed with Thioflavin-T (THT) at a final concentration of 16 μM, centrifuged, and 250 μl of the sample were placed on a 96-well plate with 4-10 technical replicates. Measurements were done every 15 minutes and the sample agitated at 1096 cpm at 37° C. on a Synergy H1 microplate reader (BioTek, Winooski, VT). The lag time, defined as the time-point at which fibrillation starts its exponential phase, was considered as the point at which fluorescence was 3 times the background signal.

STZ (diabetic) rats = test: In vivo assay in STZ (diabetic) rats, subcutaneous injection; set-up: species or system rat
Excerpt: FIG. 17 presents an in vivo assay done in STZ rats.
FIG. 18 presents another in vivo assay done in STZ rats. The four fusion proteins used in FIG. 17 were subcutaneously injected at doses of 23.8 nmol/kg per rat. […] In this study both fusion proteins carrying an active SCI analogue had similar activities.

normal rats [2] = test: In vivo glucagon activity assay in normal rats; set-up: species or system rat; conditions: for in vivo glucagon activity (rise in blood glucose): subcutaneous injection
Protocol: Glucagon Activity Assays. […] Glucagon or analogues were prepared (150 μg/ml in sterile 50 mM Tris-HCl buffer (pH 8.0)) and administered by subcutaneous injections (40.1 nmol/kg (˜50 ug/333 g rat)) in an injection volume of 200 μl/333 g rat. Rats were grouped according to their 2nd measured starting blood-glucose concentrations to ensure similar starting values at time=0. For in vivo dose-response studies a series of doses (40.1, 8.0, 1.6, 0.32, 0.064, and 0.013 nmol/kg) was tested in groups of 4-5 rats at each dose. Diluent volume was 200 μl/333 g rat. Experiments were repeated at least twice, and the results were averaged. The rise in blood glucose values were corrected by any changes observed in diluent-injected rats.

glucagon receptor = glucagon receptor (Homo sapiens, UniProt P47871); test: Cell-based cyclic AMP (cAMP) activity assay; conditions: for EC50: FIG. 8B, HEK-293 cells overexpressing glucagon receptor, read-out: EC50 (cAMP production)
glucagon receptor, sequence (P47871 26-477, species assumed): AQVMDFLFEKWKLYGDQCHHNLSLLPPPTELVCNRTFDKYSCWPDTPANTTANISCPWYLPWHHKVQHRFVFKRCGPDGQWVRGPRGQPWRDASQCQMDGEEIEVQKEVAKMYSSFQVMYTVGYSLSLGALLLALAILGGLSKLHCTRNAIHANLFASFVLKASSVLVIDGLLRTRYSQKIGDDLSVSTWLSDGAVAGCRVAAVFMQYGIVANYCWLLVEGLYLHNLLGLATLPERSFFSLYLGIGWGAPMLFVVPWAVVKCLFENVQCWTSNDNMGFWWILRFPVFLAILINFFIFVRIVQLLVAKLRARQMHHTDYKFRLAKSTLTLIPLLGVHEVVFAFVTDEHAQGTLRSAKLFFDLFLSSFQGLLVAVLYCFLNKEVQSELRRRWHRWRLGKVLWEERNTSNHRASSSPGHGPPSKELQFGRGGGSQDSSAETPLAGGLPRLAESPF
Protocol: Cell-based Activity Assays. We generated a cAMP assay on HepG2 cells transiently transfected with the glucagon receptor (GCGR). The GCGR gene with C-terminal Flag tag was synthesized and ligated to a pcDNA 3.1 vector by Genscript. A plate of HepG2 cells was grown to 70% confluence and then transfected with 15 μg plasmid. […] Then, cAMP was measured following the instructions of the LANCETM Ultra cAMP Kit (PerkingElmer) using 3 technical replicates per point. This is a TR-FRET assay based on the competition between a europium-labeled cAMP and sample cAMP for binding to cAMP-specific labeled antibodies. In the LANCE cAMP assay, a higher sample cAMP (higher glucagon activity) translates to lower signal.

normal rats [3] = test: Stability assay: samples incubated at 37° C., then activity tested; format: in vivo, rat; conditions: FIG. 11; 150 μg/ml in 50 mM Tris buffer pH 8.0, 37° C., mild agitation and rotation; tested t=0, day 3, day 7
Protocol: Glucagon Activity Assays. The glycemic activities of glucagon analogues were tested (Ismail-Beigi ,Case Western Reserve University) in normal male rats (250-350 g) that were fasted for 4 h before the injection and not fed during the course of the experiment (4-5 rats per dose of glucagon in parallel). Glucagon or analogues were prepared (150 μg/ml in sterile 50 mM Tris-HCl buffer (pH 8.0)) and administered by subcutaneous injections (40.1 nmol/kg (˜50 ug/333 g rat)) in an injection volume of 200 μl/333 g rat. Rats were grouped according to their 2nd measured starting blood-glucose concentrations to ensure similar starting values at time=0. For in vivo dose-response studies a series of doses (40.1, 8.0, 1.6, 0.32, 0.064, and 0.013 nmol/kg) was tested in groups of 4-5 rats at each dose. Diluent volume was 200 μl/333 g rat. Experiments were repeated at least twice, and the results were averaged. The rise in blood glucose values were corrected by any changes observed in diluent-injected rats.
To test for stability of glucagon and its analogues, samples (150 μg/ml in 50 mM Tris-HCl buffer (pH 8.0)) were incubated at 37° C. with mild agitation and rotation. Samples were tested as described above after varying periods of incubation.

[4] = pH 2.5, 37° C., constant agitation

Q: Which fibril formation [1, 4] does the source give for “HSQGTFTSDYSKYLDSRRAQDFVQWLMNTK [SEQ ID NO: 3]” here?
A: delay fibril formation

Q: What does the source list for “FVNQHLCGSHLVEALYLVCGEOGFFYTPETEEGPOOGIVEQCCQSICSLEQLENYCN (FVNQHLCGSHLVEALYLVCGEXGFFYTPETEEGPXXGIVEQCCQSICSLEQLENYCN; ornithine residues; insulin peptide analog; (22)..(22) Xaa at position 22 is Orn.; (35)..(35) Xaa at position 35 is Orn.; (36)..(36) Xaa at position 36 is Orn.) [SEQ ID NO: 71, 57-residue single-chain insulin (SCI) analogue lacking internal tryptic sites]”?
A: formation of amyloid-like fibrils [1]: did not form amyloid-like fibrils within the duration of the experiment; biological activity relative to insulin Lispro (KP-insulin) (STZ (diabetic) rats; FIG. 14, STZ (diabetic) rats, 30-μg dose of SCI vs 15-μg dose of KP-insulin): slightly higher activity than a 15-μg dose of KP-insulin

Q: With “HSQGTFTSDYSKKLDSERAQDFVQWLMNT (lactam 13-17) [[Lys13, Glu17]-Glucagon linear, linear [Lys13, Glu17] analogue without Orn substitutions or C-terminal EEK extension]” as the molecule, how does the “in vivo glucagon activity (rise in blood glucose)” value (shortened to “in vivo glucagon activity”) (normal rats [2]; FIGS. 9, 10, 13) read?
A: only analogue that is active, other than wild-type glucagon, was the [Lys13, Glu17]-glucagon lactam

Q: Which “formation of amyloid-like fibrils” value [1] does the source give for insulin Lispro [reference compound] here?
A: formed amyloid-like fibrils

Q: Which EC50 (glucagon receptor) does the source give for CSCC[C@H](NC(=O)[C@H](CC(C)C)NC(=O)[C@H](Cc1c[nH]c2ccccc12)NC(=O)[C@H](CCC(N)=O)NC(=O)[C@@H](NC(=O)[C@H](Cc1ccccc1)NC(=O)[C@H](CC(=O)O)NC(=O)[C@H](CCC(N)=O)NC(=O)[C@H](C)NC(=O)[C@H](CCCN)NC(=O)[C@@H]1CCC(=O)NCCCC[C@H](NC(=O)[C@H](CCCN)NC(=O)[C@H](CO)NC(=O)[C@H](Cc2ccc(O)cc2)NC(=O)[C@H](CC(=O)O)NC(=O)[C@H](CO)NC(=O)[C@@H](NC(=O)[C@H](Cc2ccccc2)NC(=O)[C@@H](NC(=O)CNC(=O)[C@H](CCC(N)=O)NC(=O)[C@H](CO)NC(=O)[C@@H](N)Cc2c[nH]cn2)[C@@H](C)O)[C@@H](C)O)C(=O)N[C@@H](CC(C)C)C(=O)N[C@@H](CC(=O)O)C(=O)N[C@@H](CO)C(=O)N1)C(C)C)C(=O)N[C@@H](CC(N)=O)C(=O)N[C@H](C(=O)N[C@@H](CCC(=O)O)C(=O)N[C@@H](CCC(=O)O)C(=O)N[C@@H](CCCCN)C(=O)O)[C@@H](C)O [SEQ ID NO: 23, HSQGTFTSDYSOKLDSEOAQDFVQWLMNTEEK] (H-HSQGTFTSDYS[Orn]KLDSE[Orn]AQDFVQWLMNTEEK-OH; lactam 13-17; N-terminus and C-terminus assumed) here?
A: 126 nM

Q: What about the “biological activity after incubation (stability)” value (normal rats [3]) of the same molecule?
A: maintained full biological activity

Q: What about the “time without fibril formation” value ([1]; FIG. 7, phosphate-buffered saline pH 7.4, 100 μM, 37° C., constant agitation) of the same molecule?
A: > 11 days

Q: What about the “formation of amyloid-like fibrils” value [1] of the same molecule?
A: did not form amyloid-like fibrils within the duration of the experiment

Q: What about the “rise in blood glucose levels” value (normal rats [2]; FIG. 12, 8 nmol/kg rat dose) of the same molecule?
A: minor raise

Q: What about the “rise in blood glucose levels, dose-response” value (normal rats [2]; FIG. 12, doses 0.32, 1.6, 8 and 40 nmol/kg rat) of the same molecule?
A: only at the maximum dose

Q: What about the “in vivo glucagon activity” value (normal rats [2]; FIGS. 9, 10, 13) of the same molecule?
A: maximal activity

Q: And the “in vivo glucagon activity” value (normal rats [2]; FIGS. 9, 10, 13, listed as [Lys13, Glu17]-glucagon-EEK lactam)?
A: active

Q: Which results are given for CSCC[C@H](NC(=O)[C@H](CC(C)C)NC(=O)[C@H](Cc1c[nH]c2ccccc12)NC(=O)[C@H](CCC(N)=O)NC(=O)[C@@H](NC(=O)[C@H](Cc1ccccc1)NC(=O)[C@H](CC(=O)O)NC(=O)[C@H](CCC(N)=O)NC(=O)[C@H](C)NC(=O)[C@H](CCCN)NC(=O)[C@H](CCCN)NC(=O)[C@H](CO)NC(=O)[C@H](CC(=O)O)NC(=O)[C@H](CC(C)C)NC(=O)[C@H](Cc1ccc(O)cc1)NC(=O)[C@H](CCCN)NC(=O)[C@H](CO)NC(=O)[C@H](Cc1ccc(O)cc1)NC(=O)[C@H](CC(=O)O)NC(=O)[C@H](CO)NC(=O)[C@@H](NC(=O)[C@H](Cc1ccccc1)NC(=O)[C@@H](NC(=O)CNC(=O)[C@H](CCC(N)=O)NC(=O)[C@H](CO)NC(=O)[C@@H](N)Cc1c[nH]cn1)[C@@H](C)O)[C@@H](C)O)C(C)C)C(=O)N[C@@H](CC(N)=O)C(=O)N[C@H](C(=O)N[C@@H](CCC(=O)O)C(=O)N[C@@H](CCC(=O)O)C(=O)N[C@@H](CCCCN)C(=O)O)[C@@H](C)O [SEQ ID NO: 21, HSQGTFTSDYSOYLDSOOAQDFVQWLMNTEEK] (H-HSQGTFTSDYS[Orn]YLDS[Orn][Orn]AQDFVQWLMNTEEK-OH; N-terminus and C-terminus assumed)?
A: EC50 (glucagon receptor): 93.5 nM; formation of amyloid-like fibrils [1]: formed amyloid-like fibrils

Q: Which “activity at 23.8 nmol/kg relative to the 12-nmol/kg rat doses” value (STZ (diabetic) rats; FIG. 18 vs FIG. 17, STZ rats) does the source give for “HSQGTFTSKYSOELDSOOAQDFVQWLMNTEEKFVNQHLCGSHLVEALYLVCGEOGFFYTPETEEGPOOGIVEQCCQSICSLEQLENYCN [SEQ ID NO: 75]” here?
A: increased activity at the increased dose

Q: For “HSQGTFTSDYSOYLDSOOAQDFV[D-Cys]WLCNTEEK [[D-Cys24-Cys27] L]”, which “in vivo glucagon activity” value (normal rats [2]; FIGS. 9, 10, 13) is on record?
A: only analogue that is active, other than wild-type glucagon, was the [Lys13, Glu17]-glucagon lactam

Q: For “HSQGTFTSKYSOELDSOOAQDFVQWLMNTEEK (HSQGTFTSKYS[Orn]ELDS[Orn][Orn]AQDFVQWLMNTEEK; lactam 9-13) [SEQ ID NO: 24]”, which “in vivo glucagon activity” value (normal rats [2]; FIGS. 9, 10, 13) is on record?
A: inactive

Q: Which “in vivo glucagon activity” value (normal rats [2]; FIGS. 9, 10, 13, listed as [Lys13, Glu17]-glucagon lactam) does the source give for “HSQGTFTSDYSKKLDSERAQDFVQWLMNT (lactam 13-17) [SEQ ID NO: 10, a lactam bridge connects the side chains of variant residues K13 and E17]” here?
A: active

Q: Which fibril formation [1, 4] does the source give for “HSQGTFTSDYSKYLDSRRAQDFVQWLMNTR (glucagon peptide analog) [SEQ ID NO: 2]” here?
A: delay fibril formation

Q: For CC(C)C[C@H](NC(=O)[C@H](Cc1c[nH]c2ccccc12)NC(=O)[C@H](CCCCN)NC(=O)[C@@H](NC(=O)[C@H](Cc1ccccc1)NC(=O)[C@H](CCC(=O)O)NC(=O)[C@H](CCC(=O)O)NC(=O)[C@H](C)NC(=O)[C@H](CCCNC(=N)N)NC(=O)[C@H](C)NC(=O)C(C)(C)NC(=O)[C@H](CC(=O)O)NC(=O)[C@H](CC(C)C)NC(=O)[C@H](Cc1ccc(O)cc1)NC(=O)[C@H](CCCCN)NC(=O)[C@H](CO)NC(=O)[C@H](Cc1ccc(O)cc1)NC(=O)[C@H](CC(=O)O)NC(=O)[C@H](CO)NC(=O)[C@@H](NC(=O)[C@H](Cc1ccccc1)NC(=O)[C@@H](NC(=O)CNC(=O)[C@H](CCC(N)=O)NC(=O)[C@H](CO)NC(=O)[C@@H](N)Cc1c[nH]cn1)[C@@H](C)O)[C@@H](C)O)C(C)C)C(=O)N[C@@H](CCC(=O)O)C(=O)N[C@@H](CO)C(=O)N[C@H](C(=O)O)[C@@H](C)O [dasiglucagon, reference compound], which “biological activity after incubation (stability)” value (normal rats [3]) is on record?
A: maintained full biological activity

Q: For human insulin [reference compound], which “formation of amyloid-like fibrils” value [1] is on record?
A: formed amyloid-like fibrils

Q: With “HSQGTFTSDYSKYLDSRRAQDFVQWLMNTO [SEQ ID NO: 5]” as the molecule, how does the fibril formation [1, 4] read?
A: delay fibril formation

Q: What about the fibril formation ([1]; pH 7.4, 37° C., constant agitation) of the same molecule?
A: delay fibril formation

Q: For “HSQGTFTSDYSOKLDSEOAQDFVQWLMNTEEK (HSQGTFTSDYS[Orn]KLDSE[Orn]AQDFVQWLMNTEEK; lactam 13-17) [[Lys13, Glu17]-glucagon-EEK linear, includes the [Lys13-Glu17] substitutions but not the side-chain lactam bond]”, which “potency (cAMP assay)” value (glucagon receptor; FIG. 8, relative to the lactam analogue) is on record?
A: markedly diminished potency

Q: What about the “in vivo glucagon activity” value (normal rats [2]; FIGS. 9, 10, 13) of the same molecule?
A: inactive
